# Measurements from patent US20210392895A1, “NOVEL OXADIAZOLES” (PI INDUSTRIES LIMITED, priority 2018, published 2021).
# Structures can show the parent of a compound that is named as a salt.
# Tested on: Phakopsora pachyrhizi
# Assay: Phakopsora pachyrhizi test in soybean (greenhouse, preventive activity, disease severity rating)
# Format: in vivo
# Conditions: preventive spray on soybean, compared to the untreated check
# Protocol: To test the preventive activity of compounds, healthy young soybean plants, raised in the greenhouse, were sprayed with the active compound solution at the stated application rates inside spray cabinets using hallowcone nozzles. One day after treatment, the plants were inoculated with a suspension containing 2.1×10^6 Phakopsora pachyrhizi spores. The inoculated plants were then kept in the greenhouse chamber at 25° C. temperature and 90% relative humidity for disease expression. A visual assessment of the compound's performance was carried out by rating the disease severity (0-100% scale) on treated plants on 3, 7, 10 and 15 days after application. Efficacy (% control) of the compounds was calculated by comparing the disease rating in the treatment with the one of the untreated control. The treated plants were also assessed for plant compatibility by recording symptoms like necrosis, chlorosis and stunting.
row,Compound,pest or weed control at 500 ppm
1,"O=S(=O)(c1ccc(F)cc1)N1CC[C@H](Oc2ccc(-c3noc(C(F)(F)F)n3)cc2)C1 [Compound 35, (S)-3-(4-((1-((4-fluorophenyl)sulfonyl)pyrrolidin-3-yl)oxy)phenyl)-5-(trifluoromethyl)-1,2,4-oxadiazole]",> 70%
2,"O=C(Nc1ccc(F)cc1)N1CC[C@H](Oc2ccc(-c3noc(C(F)(F)F)n3)cc2)C1 [Compound 38, (S)-N-(4-fluorophenyl)-3-(4-(5-(trifluoromethyl)-1,2,4-oxadiazol-3-yl)phenoxy)pyrrolidine-1-carboxamide]",> 70%
3,"O=S(=O)(C1CC1)N1CC[C@H](Oc2ccc(-c3noc(C(F)(F)F)n3)cc2)C1 [Compound 41, (S)-3-(4-((1-(cyclopropylsulfonyl)pyrrolidin-3-yl)oxy)phenyl)-5-(trifluoromethyl)-1,2,4-oxadiazole]",> 70%
4,"COc1ccc(C(=O)N2CCC(Oc3cccc(-c4noc(C(F)(F)F)n4)c3)C2)cc1 (centres unmarked) [Compound 146, (4-methoxyphenyl)(3-(3-(5-(trifluoromethyl)-1,2,4-oxadiazol-3-yl)phenoxy)pyrrolidin-1-yl)methanone]",> 70%
5,"O=S(=O)(N1CC[C@H](Oc2ccc(-c3noc(C(F)(F)F)n3)cc2)C1)C(F)(F)F [Compound 114, (S)-5-(trifluoromethyl)-3-(4-((1-((trifluoromethyl)sulfonyl)pyrrolidin-3-yl)oxy)phenyl)-1,2,4-oxadiazole]",> 70%
6,"O=C(c1cccnc1)N1CC[C@@H](Oc2ccc(-c3noc(C(F)(F)F)n3)cn2)C1 [Compound 79, (R)-pyridin-3-yl(3-((5-(5-(trifluoromethyl)-1,2,4-oxadiazol-3-yl)pyridin-2-yl)oxy)pyrrolidin-1-yl)methanone]",> 70%
7,"O=C(c1cccc(F)c1)N1CC(Oc2ccc(-c3noc(C(F)(F)F)n3)cc2)C1 [Compound 18, (3-fluorophenyl)(3-(4-(5-(trifluoromethyl)-1,2,4-oxadiazol-3-yl)phenoxy)azetidin-1-yl)methanone]",> 70%
8,"O=S(=O)(c1ccc(F)cc1F)N1CC[C@H](Oc2ccc(-c3noc(C(F)(F)F)n3)cc2)C1 [Compound 42, (S)-3-(4-((1-((2,4-difluorophenyl)sulfonyl)pyrrolidin-3-yl)oxy)phenyl)-5-(trifluoromethyl)-1,2,4-oxadiazole]",> 70%
9,"O=S(=O)(c1cccc(F)c1)N1CC[C@H](Oc2ccc(-c3noc(C(F)(F)F)n3)cc2)C1 [Compound 26, (S)-3-(4-((1-((3-fluorophenyl)sulfonyl)pyrrolidin-3-yl)oxy)phenyl)-5-(trifluoromethyl)-1,2,4-oxadiazole]",> 70%
10,"O=C(c1cncnc1)N1CC[C@H](Oc2ccc(-c3noc(C(F)(F)F)n3)cc2)C1 [Compound 57, (S)-pyrimidin-5-yl(3-(4-(5-(trifluoromethyl)-1,2,4-oxadiazol-3-yl)phenoxy)pyrrolidin-1-yl)methanone]",> 70%
11,"O=S(=O)(c1ccccc1)N1CC[C@H](Oc2ccc(-c3noc(C(F)(F)F)n3)cc2)C1 [Compound 25, (S)-3-(4-((1-(phenylsulfonyl)pyrrolidin-3-yl)oxy)phenyl)-5-(trifluoromethyl)-1,2,4-oxadiazole]",> 70%
12,"CC(C)(C)OC(=O)N1CCC(Oc2ccc(-c3noc(C(F)(F)F)n3)cc2)CC1 [Compound 84, tert-butyl 4-(4-(5-(trifluoromethyl)-1,2,4-oxadiazol-3-yl)phenoxy)piperidine-1-carboxylate]",> 70%
13,"O=C(Nc1ccccc1F)N1CC[C@H](Oc2ccc(-c3noc(C(F)(F)F)n3)cc2)C1 [Compound 37, (S)—N-(2-fluorophenyl)-3-(4-(5-(trifluoromethyl)-1,2,4-oxadiazol-3-yl)phenoxy)pyrrolidine-1-carboxamide]",> 70%
14,"Cn1cnc(S(=O)(=O)N2CC[C@H](Oc3ccc(-c4noc(C(F)(F)F)n4)cc3)C2)c1 [Compound 148, (S)-3-(4-((1-((1-methyl-1H-imidazol-4-yl)sulfonyl)pyrrolidin-3-yl)oxy)phenyl)-5-(trifluoromethyl)-1,2,4-oxadiazole]",> 70%
15,"FC(F)(F)c1nc(-c2cccc(OC3CCNC3)c2)no1 (centres unmarked) [Compound 128, 3-(3-(pyrrolidin-3-yloxy)phenyl)-5-(trifluoromethyl)-1,2,4-oxadiazole hydrochloride]",> 70%
16,"CS(=O)(=O)N1CC[C@H](Oc2ccc(-c3noc(C(F)(F)F)n3)cn2)C1 [Compound 111, (S)-3-(6-((1-(methylsulfonyl)pyrrolidin-3-yl)oxy)pyridin-3-yl)-5-(trifluoromethyl)-1,2,4-oxadiazole]",> 70%

row,Compound,pest or weed control at 500 ppm
1,"CC(C)(C)OC(=O)N1CC[C@H](Oc2ccc(-c3noc(C(F)(F)F)n3)nc2)C1 [Compound 27, tert-butyl (S)-3-((6-(5-(trifluoromethyl)-1,2,4-oxadiazol-3-yl)pyridin-3-yl)oxy)pyrrolidine-1-carboxylate]",> 70%
2,"CN(c1ccc(-c2noc(C(F)(F)F)n2)cc1)C1CN(C(=O)c2ccc(F)cc2)C1 [Compound 124, (4-fluorophenyl)(3-(methyl(4-(5-(trifluoromethyl)-1,2,4-oxadiazol-3-yl)phenyl)amino)azetidin-1-yl)methanone]",> 70%
3,"O=C(C1CCC1)N1CC[C@H](Oc2ccc(-c3noc(C(F)(F)F)n3)cc2)C1 [Compound 9, (S)-cyclobutyl(3-(4-(5-(trifluoromethyl)-1,2,4-oxadiazol-3-yl)phenoxy)pyrrolidin-1-yl)methanone]",> 70%
4,"O=C(c1ccccc1)N1CC[C@H](Oc2ccc(-c3noc(C(F)(F)F)n3)cc2)C1 [Compound 15, (S)-phenyl(3-(4-(5-(trifluoromethyl)-1,2,4-oxadiazol-3-yl)phenoxy)pyrrolidin-1-yl)methanone]",> 70%
5,"CCS(=O)(=O)N1CC[C@H](Oc2ccc(-c3noc(C(F)(F)F)n3)cn2)C1 [Compound 50, (S)-3-(6-((1-(ethylsulfonyl)pyrrolidin-3-yl)oxy)pyridin-3-yl)-5-(trifluoromethyl)-1,2,4-oxadiazole]",> 70%
6,"O=C(c1ccccc1F)N1CC(Oc2ccc(-c3noc(C(F)(F)F)n3)cc2)C1 [Compound 20, (2-fluorophenyl)(3-(4-(5-(trifluoromethyl)-1,2,4-oxadiazol-3-yl)phenoxy)azetidin-1-yl)methanone]",> 70%
7,"O=S(=O)(c1cccc(Cl)c1)N1CC[C@H](Oc2ccc(-c3noc(C(F)(F)F)n3)cc2)C1 [Compound 122, (S)-3-(4-((1-((3-chlorophenyl)sulfonyl)pyrrolidin-3-yl)oxy)phenyl)-5-(trifluoromethyl)-1,2,4-oxadiazole]",> 70%
8,"O=C(c1ccc(Cl)cc1)N1CC[C@H](Oc2ccc(-c3noc(C(F)(F)F)n3)cc2)C1 [Compound 44, (S)-(4-chlorophenyl)(3-(4-(5-(trifluoromethyl)-1,2,4-oxadiazol-3-yl)phenoxy)pyrrolidin-1-yl)methanone]",> 70%
9,"O=S(=O)(c1ccccc1F)N1CC[C@H](Oc2ccc(-c3noc(C(F)(F)F)n3)cc2)C1 [Compound 33, (S)-3-(4-((1-((2-fluorophenyl)sulfonyl)pyrrolidin-3-yl)oxy)phenyl)-5-(trifluoromethyl)-1,2,4-oxadiazole]",> 70%
10,"CC(C)(C)OC(=O)N1CC[C@H](Oc2ccc(-c3noc(C(F)(F)F)n3)cc2)C1 [Compound 23, tert-butyl (S)-3-(4-(5-(trifluoromethyl)-1,2,4-oxadiazol-3-yl)phenoxy)pyrrolidine-1-carboxylate]",> 70%
11,"CN(c1ccc(-c2noc(C(F)(F)F)n2)cc1)C1CN(C(=O)OC(C)(C)C)C1 [Compound 80, tert-butyl 3-(methyl(4-(5-(trifluoromethyl)-1,2,4-oxadiazol-3-yl)phenyl)amino)azetidine-1-carboxylate]",> 70%
12,"COc1ccc(C(=O)N2CC[C@H](Oc3ccc(-c4noc(C(F)(F)F)n4)nc3)C2)cc1 [Compound 29, (S)-(4-methoxyphenyl)(3-((6-(5-(trifluoromethyl)-1,2,4-oxadiazol-3-yl)pyridin-3-yl)oxy)pyrrolidin-1-yl)methanone]",> 70%
13,"O=C(c1cccnc1)N1CC[C@H](Oc2ccc(-c3noc(C(F)(F)F)n3)nc2)C1 [Compound 31, (S)-pyridin-3-yl(3-((6-(5-(trifluoromethyl)-1,2,4-oxadiazol-3-yl)pyridin-3-yl)oxy)pyrrolidin-1-yl)methanone]",> 70%
14,"Cc1cccc(S(=O)(=O)N2CC[C@H](Oc3ccc(-c4noc(C(F)(F)F)n4)cn3)C2)c1 [Compound 112, (S)-3-(6-((1-(m-tolylsulfonyl)pyrrolidin-3-yl)oxy)pyridin-3-yl)-5-(trifluoromethyl)-1,2,4-oxadiazole]",> 70%
15,"O=C(c1cccc(F)c1)N1CC[C@H](Oc2ccc(-c3noc(C(F)(F)F)n3)cn2)C1 [Compound 47, (S)-(3-fluorophenyl)(3-((5-(5-(trifluoromethyl)-1,2,4-oxadiazol-3-yl)pyridin-2-yl)oxy)pyrrolidin-1-yl)methanone]",> 70%
16,"O=S(=O)(c1cccc(C(F)(F)F)c1)N1CC[C@H](Oc2ccc(-c3noc(C(F)(F)F)n3)cn2)C1 [Compound 151, (S)-5-(trifluoromethyl)-3-(6-((1-((3-(trifluoromethyl)phenyl)sulfonyl)pyrrolidin-3-yl)oxy)pyridin-3-yl)-1,2,4-oxadiazole]",> 70%
